Data from US20080312271A1, “AZABENZIMIDAZOLYL COMPOUNDS” (Pfizer Inc., priority 2006, published 2008).
Read-outs that look alike come from different tables or passages of the source.

Target: T1, mGluR2 receptor (metabotropic glutamate receptor 2) (Homo sapiens, UniProt Q14416)
T1 construct: expressed in transfected cells
Assay: mGluR2 Potentiator Screen, FLIPR, EC10-EC20 glutamate challenge
Format: cell-based
Description: Procedure for mGluR2 Potentiator Screen NLB methods EC10-EC20 Challenge Cell Culture and Plating:
Cells used for this screen are HEK cells stably transfected with the mGluR2 receptor (metabotropic glutamate receptor 2) and the Gα15 G protein. Clones were identified by functional activity (FLIPR). Cells are grown in growth media containing: DMEM High Glucose with Glutamine and Na Pyruvate (GIBCO), 10% (v/v) Heat inactivate FBS (GIBCO), G418 500 ug/ml (from 50 mg/ml stock) (GIBCO) and Blasticidin 3 ug/ml (from 5 mg/ml stock made in H2O) (Invitrogen).
2 days before the assay cell are trypsinized with 0.25% trysin/EDTA (GIBCO), spun down at 1000 rpm for 5 minutes, resuspended in growth media and plated on polystyrene 384 well black wall 1 clear bottom poly-D-lysine coated plates at a density of approximately 18,000 cells/well in a volume of 50 μL per well. One day before the assay the growth media is removed from the plates by flicking, and replaced with media containing DMEM High Glucose without Glutamine and Na Pyruvate (GIBCO) and 10% (v/v) dialyzed FBS (GIBCO). The reason for the removal of glutamine the day before the assay is to minimize the amount of glutamate that will be present during the assay, as endogenous glutarnate released from the cells can reduce the fluorescent response and interfere with the FLIPR screen.
FLIPR Methods and Data Analysis:
On the day of the assay, the FLIPR assay is performed using the following methods.
The pH is adjusted to 7.4 with 1 M NaOH. Prepare a 2 mM (approx.) stock solution of Fluo-4,am (Molecular Probes) dye in DMSO-22 μl DMSO per 50 ug vial (440 μL per 1 mg vial). Make a 1 mM (approx.) flou-4, PA working solution per vial by adding 22 μl of 20% pluronic acid (PA), (Molecular Probes) in DMSO to each 50 ug vial (440 μL per 1 mg vial). Prepare a 250 mM Probenecid (Sigma) stock solution by dissolving 0.71 g into 5 ml 1N NaOH and 5 ml assay buffer (for each liter of assay wash buffer)L Make 4 uM (approx.) dye incubation media by adding […] per 11 ml DMEM high glucose without glutamine (220 ml per 1 mg vial). Add 110 μL probenecid stock per 11 ml (2.5 mM final [concentration]). To the dye media add 3 units/ml of glutamic-pyruvic transaminase (GPT, Sigma) and 3 mM Na Pyruvate. The assay has worked with dye concentrations from 2 uM to 8 uM dye as well. To the assay buffer from drug preparation, add 1.83 mls DMSO and 400 μL 15.8% P104 (from New Leads biology) per liter for final concentrations of 0.18% DMSO and 0.006% P104. To the assay buffer for cell washing, add probenecid in the same manner and concentration that was used for the dye media.
Remove growth media from cell plates by flicking. Add 50 μl/well dye solution. Incubate 1 hour at 37° C. and 5% CO2. Remove dye solution and wash 3 times with assay buffer+probenecid (100 μl probenecid stock per 10 ml buffer), leaving 30 μL/well assay buffer. Wait at least 10-15 minutes. Compounds and agonist challenge additions are performed with the FLIPR. The 1st addition is for test compounds, which are added as 15 μL of 4×[concentration] of potentiator. The second 2nd addition is 15 μL of 4×[concentration] of agonist or challenge. This achieves 1× concentration of all compounds only after 2nd addition. The 1st and 2nd additions are performed separately using the FLIPR, which give 2 different data files. Compounds are pretreated at least 30 minutes before agonist addition,
Results are analyzed by dividing the peak fluorescent value of the FLIPR response by the […] to achieve a ratio response. The ratios are then analyzed by curve fitting programs. […] Maximum values for dose response curves (forced fitting) are derived from standards on the plate.
Compound Preparation and Glutamate Challenge:
Compounds are delivered as 10 mM DMSO stocks or as powders, Powders are solubilized in DMSO at 10 mM (as solubility allows). Compounds are sonicated in a heated water bath (35-40° C.) for at least 20 minutes.

[1] = mGluR2 potentiator screen, FLIPR, EC10-EC20 glutamate challenge

T1 sequence (Q14416 19-872, species assumed): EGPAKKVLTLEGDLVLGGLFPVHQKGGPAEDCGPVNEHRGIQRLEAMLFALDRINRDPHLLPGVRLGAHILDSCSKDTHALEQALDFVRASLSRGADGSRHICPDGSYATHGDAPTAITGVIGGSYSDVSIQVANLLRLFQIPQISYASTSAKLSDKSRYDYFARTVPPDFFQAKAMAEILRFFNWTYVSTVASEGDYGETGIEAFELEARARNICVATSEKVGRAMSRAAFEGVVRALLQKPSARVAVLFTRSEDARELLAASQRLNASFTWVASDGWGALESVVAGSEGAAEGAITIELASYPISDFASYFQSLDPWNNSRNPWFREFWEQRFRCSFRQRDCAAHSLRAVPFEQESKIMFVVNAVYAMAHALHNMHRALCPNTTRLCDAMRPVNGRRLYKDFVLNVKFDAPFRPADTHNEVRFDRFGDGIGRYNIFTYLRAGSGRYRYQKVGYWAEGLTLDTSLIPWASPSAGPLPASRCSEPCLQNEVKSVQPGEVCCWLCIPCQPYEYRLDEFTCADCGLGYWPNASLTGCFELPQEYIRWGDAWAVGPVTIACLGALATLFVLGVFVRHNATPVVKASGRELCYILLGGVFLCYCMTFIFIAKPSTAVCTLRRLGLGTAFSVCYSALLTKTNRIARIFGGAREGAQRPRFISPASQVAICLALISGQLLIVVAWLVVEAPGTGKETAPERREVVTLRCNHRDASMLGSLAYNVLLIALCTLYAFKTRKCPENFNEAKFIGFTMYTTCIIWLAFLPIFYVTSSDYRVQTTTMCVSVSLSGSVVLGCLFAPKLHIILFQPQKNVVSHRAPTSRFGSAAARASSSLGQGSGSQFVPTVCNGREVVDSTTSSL

Row | Compound | EC50 [1] [nM] | EC50 [nM]
1 | Cn1c(CN2CCC(c3ccc(OC(F)(F)F)cc3)CC2)nc2ncccc21 [compound 231] | 84.5 | 
2 | C[C@@H]1CN(Cc2nc3ncccc3n2C)CC[C@@H]1c1ccc(Cl)cc1Cl (single isomer, unassigned) [compound 186] |  | 611
3 | C[C@H]1CN(Cc2nc3ncccc3n2C)CC[C@H]1c1ccc(Cl)cc1F [compound 123] |  | > 1810
4 | CC(C)Oc1ccc(C2CCN(Cc3nc4cnccc4n3C)CC2)c(F)c1 [compound 261] | 125 | 
5 | Cn1c(CN2CCC(c3ccc(Cl)cc3)CC2)nc2ncccc21 [compound 80] |  | > 9110
6 | COc1cc(F)ccc1[C@H]1CCN(Cc2nc3cnccc3n2C)C[C@H]1C (single isomer, unassigned) [compound 260] | 125 | 
7 | COc1cc(C(F)(F)F)ccc1[C@H]1CCN(Cc2nc3cnccc3n2C)C[C@H]1C (single isomer, unassigned) [compound 142] |  | > 314
8 | C[C@@H]1CN(Cc2nc3cnccc3n2C)CC[C@@H]1c1ccc2c(c1)CCO2 (relative stereo) [compound 201] |  | > 1070
9 | COc1cc(C2CCN(Cc3nc4cnccc4n3C)CC2)ccc1C(F)(F)F [compound 278] | 245 | 
10 | COc1cc(C(F)(F)F)ccc1C1CCN(Cc2nc3cnccc3n2C)CC1 [compound 63] |  | 834
11 | C[C@@H]1CN(Cc2nc3ncccc3n2C)CC[C@@H]1c1ccc(F)cc1C(F)(F)F (single isomer, unassigned) [compound 252] | 288 | 
12 | Cn1c(CN2CCC(c3ccccc3F)CC2)nc2ncccc21 [compound 54] |  | 1590
13 | C[C@@H]1CN(Cc2nc3ncccc3n2C)CC[C@@H]1c1ccc(OC(F)(F)F)cc1Cl (single isomer, unassigned) [compound 255] | 76.9 | 
14 | Cn1c(CN2CCC(c3ccc(C(F)(F)F)cc3Cl)CC2)nc2ncccc21 [compound 272] | 24.1 | 
15 | C[C@@H]1CN(Cc2nc3cnccc3n2C)CC[C@@H]1c1ccc2c(c1)CCCC2 (relative stereo) [compound 190] |  | 573
16 | C[C@@H]1CN(Cc2nc3cnccc3n2C)CC[C@@H]1c1ccc(OC(F)(F)F)cc1 (single isomer, unassigned) [compound 175] |  | > 3200
17 | C[C@@H]1CN(Cc2nc3ncccc3n2C)CC[C@@H]1c1ccc(F)cc1C(F)(F)F (single isomer, unassigned) [compound 251] | 21 | 
18 | Cc1cc(NC(=O)c2cccc(C3CCN(Cc4nc5ncccc5n4C)CC3)c2)n[nH]1 [compound 105] |  | 3660
19 | COc1cc(C(F)(F)F)ccc1[C@H]1CCN(Cc2nc3cnccc3n2C)C[C@H]1C (single isomer, unassigned) [compound 141] |  | 1310
20 | CC(C)Oc1ccc([C@H]2CCN(Cc3nc4ncccc4n3C)C[C@H]2C)c(F)c1 (single isomer, unassigned) [compound 218] |  | > 909
21 | Cn1c(CN2CCC(c3ccccc3C#N)CC2)nc2ncccc21 [compound 77] |  | > 5700
22 | Cn1c(CN2CCC(c3ccc(C(F)(F)F)cc3F)CC2)nc2ncccc21 [compound 268] | 12.7 | 
23 | Cn1c(CN2CCC(c3ccc(C(F)(F)F)cc3F)CC2)nc2cnccc21 [compound 236] | 50.8 | 
24 | Cc1ccccc1C1CCN(Cc2nc3ncccc3n2C)CC1 [compound 89] |  | 823
25 | C[C@@H]1CN(Cc2nc3ncccc3n2C)CC[C@@H]1c1ccc(OC(F)F)cc1Cl (single isomer, unassigned) [compound 244] | 36 | 
26 | COc1cc(C(F)(F)F)ccc1[C@H]1CCN(Cc2nc3ncccc3n2C)C[C@H]1C (single isomer, unassigned) [compound 130] |  | 787
27 | COc1cc(OC(F)(F)F)ccc1C1CCN(Cc2nc3ncccc3n2C)CC1 [compound 281] | 99.7 | 
28 | Cn1c(CN2CCC(c3ccc(OC(F)F)cc3)CC2)nc2cnccc21 [compound 263] | 906 | 
29 | Cn1c(CN2CCC(c3ccc(OC(F)F)cc3Cl)CC2)nc2cnccc21 [compound 265] | 164 | 

Further lines, results first:

Row | EC50 [1] [nM] | EC50 [nM] | Compound
30 |  | 212 | COc1cc(F)ccc1C1CCN(Cc2nc3ncccc3n2C)CC1 [compound 87]
31 |  | 302 | COc1ccccc1C1CCN(Cc2nc3ncccc3n2C)CC1C (stereo not drawn) [compound 60]
32 |  | 23 | C[C@@H]1CN(Cc2nc3cnccc3n2C)CC[C@@H]1c1ccc(C(F)(F)F)cc1F (single isomer, unassigned) [compound 144]
33 |  | 66.3 | C[C@@H]1CN(Cc2nc3cnccc3n2C)CC[C@@H]1c1ccc(C(F)(F)F)cc1Cl (relative stereo) [compound 152]
34 |  | 203 | COc1ccc(Cl)cc1C1CCN(Cc2nc3ncccc3n2C)CC1 [compound 43]
35 |  | 63 | C[C@@H]1CN(Cc2nc3ncccc3n2C)CC[C@@H]1c1ccc(OC(F)(F)F)cc1Cl (relative stereo) [compound 187]
36 |  | 58.5 | Cn1c(CN2CCC(c3ccc(Cl)cc3F)CC2)nc2cccnc21 [compound 112]
37 |  | 82.3 | CC(C)Oc1ccc([C@H]2CCN(Cc3nc4ncccc4n3C)C[C@H]2C)c(F)c1 (relative stereo) [compound 166]
38 |  | 251 | Cn1c(CN2CCC(c3ccc(F)cc3F)CC2)nc2ncccc21 [compound 82]
39 |  | 53.2 | C[C@@H]1CN(Cc2nc3cnccc3n2C)CC[C@@H]1c1ccc(C(F)(F)F)c(F)c1 (single isomer, unassigned) [compound 183]
40 |  | 62.6 | Cc1ccc([C@H]2CCN(Cc3nc4ncccc4n3C)C[C@H]2C)c(Cl)c1 (relative stereo) [compound 210]
41 |  | 506 | CC(C)Oc1ccc([C@H]2CCN(Cc3nc4ncccc4n3C)C[C@H]2C)cc1Cl (relative stereo) [compound 195]
42 |  | 11.1 | COc1cc(C(F)(F)F)ccc1C1CCN(Cc2nc3ncccc3n2C)CC1 [compound 64]
43 |  | 98.9 | C[C@@H]1CN(Cc2nc3cnccc3n2C)CC[C@@H]1c1ccc(OC(F)(F)F)cc1 (single isomer, unassigned) [compound 176]
44 |  | 307 | Cn1c(CN2CCC(c3cccc(F)c3F)CC2)nc2ncccc21 [compound 108]
45 |  | 313 | Cn1c(CN2CCC(c3ccc(F)c(Cl)c3)CC2)nc2ncccc21 [compound 101]
46 |  | 53.7 | COc1cc(F)ccc1[C@H]1CCN(Cc2nc3cnccc3n2C)C[C@H]1C (relative stereo) [compound 133]
47 |  | < 18 | C[C@@H]1CN(Cc2nc3ncccc3n2C)CC[C@@H]1c1ccc(C(F)(F)F)cc1Cl (single isomer, unassigned) [compound 162]
48 |  | 514 | Cc1cc(OC(F)(F)F)ccc1[C@H]1CCN(Cc2nc3cnccc3n2C)C[C@H]1C (relative stereo) [compound 165]
49 |  | 242 | C[C@@H]1CN(Cc2nc3cnccc3n2C)CC[C@@H]1c1ccccc1F (single isomer, unassigned) [compound 73]
50 |  | 315 | Cn1c(CN2CCC(c3ccc(Cl)c(F)c3)CC2)nc2cnccc21 [compound 107]
51 |  | 194 | C[C@@H]1CN(Cc2nc3cnccc3n2C)CC[C@@H]1c1ccc(OC(F)(F)F)cc1Cl (relative stereo) [compound 188]
52 |  | 378 | Cn1c(CN2CCC(c3ccc(Cl)c(F)c3)CC2)nc2cccnc21 [compound 109]
53 |  | 49.8 | C[C@@H]1CN(Cc2nc3cnccc3n2C)CC[C@@H]1c1ccc(Cl)cc1F (relative stereo) [compound 116]
54 |  | 81 | Cn1c(CN2CCC(c3ccc(Cl)cc3F)CC2)nc2cnccc21 [compound 113]
